Source: ChEMBL document CHEMBL1201862, “PubChem BioAssay data set” (2004)
The source made the active and inactive calls.

Tests used:
[1] = biological target: T1, Cytochrome P450 3A4 (Homo sapiens, UniProt P08684);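 further: CYP3A4 tested as one member of a cytochrome P450 panel screen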
[2] = cells
[3] = biological target: T2, Oxysterols receptor LXR-beta (Homo sapiens, UniProt P55055); type: functional, cell-based;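 further: Cell-based luminescence dose-response assay of agonist activity at LXR, run as a confirmatory counterscreen to a daf-12 agonist screen; HEK293 cells with Gal4-LXR fusion and GAL4-driven luciferase reporter; agonist potency from rising luciferase signal of a Gal4-LXR reporter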
T2 sequence (P55055 whole entry): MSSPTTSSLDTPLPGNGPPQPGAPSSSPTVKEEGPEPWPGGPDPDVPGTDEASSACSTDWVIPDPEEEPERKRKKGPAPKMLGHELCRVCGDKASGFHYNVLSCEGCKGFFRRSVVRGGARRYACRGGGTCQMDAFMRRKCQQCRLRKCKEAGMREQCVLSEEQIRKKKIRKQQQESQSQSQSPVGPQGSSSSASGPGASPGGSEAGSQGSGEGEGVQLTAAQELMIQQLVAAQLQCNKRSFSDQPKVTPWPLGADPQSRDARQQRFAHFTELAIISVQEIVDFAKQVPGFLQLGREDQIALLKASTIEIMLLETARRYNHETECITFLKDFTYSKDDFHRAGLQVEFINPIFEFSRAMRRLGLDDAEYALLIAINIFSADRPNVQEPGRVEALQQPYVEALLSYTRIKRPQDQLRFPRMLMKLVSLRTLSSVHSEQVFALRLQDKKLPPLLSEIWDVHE

[4] = biological target: T3, Mannose-6-phosphate isomerase (Homo sapiens, UniProt P34949); assay: human PMI inhibitors, high substrate, primary screen, biochemical, fluorescence intensity, high mannose 6-phosphate (AID 1220)
T3 sequence (P34949 whole entry): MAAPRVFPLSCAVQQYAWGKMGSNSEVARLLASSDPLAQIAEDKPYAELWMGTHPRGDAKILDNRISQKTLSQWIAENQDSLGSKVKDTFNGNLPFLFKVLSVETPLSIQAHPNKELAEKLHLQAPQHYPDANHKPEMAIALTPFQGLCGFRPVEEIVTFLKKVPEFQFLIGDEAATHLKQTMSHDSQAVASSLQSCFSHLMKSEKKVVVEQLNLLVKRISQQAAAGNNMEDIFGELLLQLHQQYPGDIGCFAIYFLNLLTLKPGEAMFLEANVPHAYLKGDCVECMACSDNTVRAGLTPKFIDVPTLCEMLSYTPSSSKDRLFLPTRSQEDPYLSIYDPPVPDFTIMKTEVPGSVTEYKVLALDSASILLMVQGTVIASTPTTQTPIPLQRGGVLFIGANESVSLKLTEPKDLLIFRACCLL

[5] = biological target: Induced myeloid leukemia cell differentiation protein Mcl-1 (Homo sapiens, UniProt Q07820); type: functional
Induced myeloid leukemia cell differentiation protein Mcl-1, sequence (Q07820 whole entry): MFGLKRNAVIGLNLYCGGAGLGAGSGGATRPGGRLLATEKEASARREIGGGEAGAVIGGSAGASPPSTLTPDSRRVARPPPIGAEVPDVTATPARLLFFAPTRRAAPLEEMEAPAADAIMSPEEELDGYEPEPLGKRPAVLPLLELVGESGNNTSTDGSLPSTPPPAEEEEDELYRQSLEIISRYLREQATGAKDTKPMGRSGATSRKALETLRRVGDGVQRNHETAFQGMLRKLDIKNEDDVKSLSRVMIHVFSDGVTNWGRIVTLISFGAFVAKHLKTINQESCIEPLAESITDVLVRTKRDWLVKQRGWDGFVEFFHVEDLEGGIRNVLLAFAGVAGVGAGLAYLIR

[6] = system: Escherichia coli; assay: microbe, parasite or virus in culture
[7] = inhibitors of HIV Env-driven cell fusion, dose response, cherry-pick (AID 652057); type: functional, cell-based
[8] = system: HEK293; assay: inhibitors of LMP1-driven NF-kB reporter, dose response, cell-based, HEK293, luciferase, cherry-pick (AID 588343); type: functional; conditions: Homo sapiens
[9] = CEM21 lymphoblast cell cytotoxicity, dose response, cytotoxicity control for viral fusion inhibitor project, CellTiter-Glo luminescence, cherry-picked (AID 652042); type: functional, cell-based;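 further: potency for signal decrease meaning cytotoxicity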
[10] = inhibitors of clade B AD8 Env fusion, dose response, cell-based, cherry-pick (AID 652062); type: functional;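 further: luciferase signal from cell-cell fusion driven by HIV-1 clade B AD8 Env; potency is for inhibitors of fusion seen as a drop in luminescence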
[11] = off-target signal loss in HeLa-CEM21 co-culture – HeLa F-luc CTL cells, cherry-picked, counter-screen for HIV-1 Env fusion inhibitor project, dose response (AID 652040); type: functional, cell-based;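 further: potency for signal decrease marking cytotoxic or nonspecific inhibition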
[12] = ZM109 Env clade C HIV-1 fusion inhibitors, dose response, HeLa effector, CEM target cells, luciferase, cherry-pick (AID 652058); type: functional, cell-based
[13] = biological target: Glucose-6-phosphate 1-dehydrogenase (Homo sapiens, UniProt P11413); assay: human G6PD enzyme inhibitors, dose response, selectivity assay for P. falciparum G6PD inhibitor project, biochemical, fluorescence (AID 504792); type: functional
Glucose-6-phosphate 1-dehydrogenase, sequence (P11413 whole entry): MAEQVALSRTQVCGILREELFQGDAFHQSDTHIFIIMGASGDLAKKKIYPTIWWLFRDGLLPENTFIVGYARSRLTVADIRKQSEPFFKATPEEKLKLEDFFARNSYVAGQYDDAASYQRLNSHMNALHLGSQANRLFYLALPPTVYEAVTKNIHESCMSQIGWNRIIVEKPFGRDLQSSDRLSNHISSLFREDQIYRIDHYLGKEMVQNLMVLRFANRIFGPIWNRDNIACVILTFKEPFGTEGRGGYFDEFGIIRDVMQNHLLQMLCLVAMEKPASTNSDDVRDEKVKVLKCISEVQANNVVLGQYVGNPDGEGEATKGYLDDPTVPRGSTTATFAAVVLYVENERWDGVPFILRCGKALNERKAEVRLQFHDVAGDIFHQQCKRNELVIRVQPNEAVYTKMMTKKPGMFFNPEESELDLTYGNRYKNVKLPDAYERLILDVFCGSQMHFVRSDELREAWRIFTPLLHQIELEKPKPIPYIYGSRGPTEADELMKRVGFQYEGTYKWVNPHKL

[14] = biological target: Luciferin 4-monooxygenase (Photinus pyralis, UniProt P08659); assay: firefly luciferase enzyme inhibitors, dose response, biochemical, luminescence (AID 1891)
Luciferin 4-monooxygenase, sequence (P08659 whole entry): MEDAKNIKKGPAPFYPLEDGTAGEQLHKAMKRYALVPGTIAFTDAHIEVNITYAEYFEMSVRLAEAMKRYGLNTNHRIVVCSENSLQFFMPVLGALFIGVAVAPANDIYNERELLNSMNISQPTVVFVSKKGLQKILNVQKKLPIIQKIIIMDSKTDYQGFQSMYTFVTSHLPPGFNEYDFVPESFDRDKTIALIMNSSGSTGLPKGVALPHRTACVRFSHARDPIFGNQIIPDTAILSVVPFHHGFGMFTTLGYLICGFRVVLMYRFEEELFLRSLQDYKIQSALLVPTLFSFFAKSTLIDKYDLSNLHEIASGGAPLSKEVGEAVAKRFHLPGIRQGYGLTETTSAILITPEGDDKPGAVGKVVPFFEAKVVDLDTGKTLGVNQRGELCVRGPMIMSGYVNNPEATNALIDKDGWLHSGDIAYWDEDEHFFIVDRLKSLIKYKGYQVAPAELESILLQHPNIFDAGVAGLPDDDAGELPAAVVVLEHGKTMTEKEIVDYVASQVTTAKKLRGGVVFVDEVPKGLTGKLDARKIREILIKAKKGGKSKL

[15] = Luminescence Cell-Based Dose Confirmation HTS to Identify Inhibitors of Platelet Dense Granule Release. [Related pubchem assays: 1663 (Primary HTS), 1678 (Summary of Project)]; type: functional
[16] = biological target: Cytochrome P450 2D6 (Homo sapiens, UniProt P10635);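 further: CYP2D6 member of a cytochrome P450 panel assay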
Cytochrome P450 2D6, sequence (P10635 whole entry): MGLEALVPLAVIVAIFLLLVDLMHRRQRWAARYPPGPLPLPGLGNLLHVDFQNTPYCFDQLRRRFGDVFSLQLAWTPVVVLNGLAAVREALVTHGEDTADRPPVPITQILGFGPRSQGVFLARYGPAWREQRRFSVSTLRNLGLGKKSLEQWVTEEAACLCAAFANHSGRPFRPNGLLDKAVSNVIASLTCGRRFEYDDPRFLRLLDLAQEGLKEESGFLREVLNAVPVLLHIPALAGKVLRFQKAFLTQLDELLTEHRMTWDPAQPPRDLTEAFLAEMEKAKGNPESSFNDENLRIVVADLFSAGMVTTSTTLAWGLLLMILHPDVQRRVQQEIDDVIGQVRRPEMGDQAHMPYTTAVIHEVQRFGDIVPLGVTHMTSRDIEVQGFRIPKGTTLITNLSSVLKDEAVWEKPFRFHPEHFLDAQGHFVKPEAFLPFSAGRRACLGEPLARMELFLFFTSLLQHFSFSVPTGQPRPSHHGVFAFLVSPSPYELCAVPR

[17] = biological target: T1, Cytochrome P450 3A4; remark: listed apart in the source
[18] = biological target: Mitogen-activated protein kinase 10 (Homo sapiens, UniProt P53779); assay: Dose response biochemical screening assay for inhibitors of c-Jun N-Terminal Kinase 3 (JNK3). [Related pubchem assays: 746 ]
Mitogen-activated protein kinase 10, sequence (P53779 whole entry): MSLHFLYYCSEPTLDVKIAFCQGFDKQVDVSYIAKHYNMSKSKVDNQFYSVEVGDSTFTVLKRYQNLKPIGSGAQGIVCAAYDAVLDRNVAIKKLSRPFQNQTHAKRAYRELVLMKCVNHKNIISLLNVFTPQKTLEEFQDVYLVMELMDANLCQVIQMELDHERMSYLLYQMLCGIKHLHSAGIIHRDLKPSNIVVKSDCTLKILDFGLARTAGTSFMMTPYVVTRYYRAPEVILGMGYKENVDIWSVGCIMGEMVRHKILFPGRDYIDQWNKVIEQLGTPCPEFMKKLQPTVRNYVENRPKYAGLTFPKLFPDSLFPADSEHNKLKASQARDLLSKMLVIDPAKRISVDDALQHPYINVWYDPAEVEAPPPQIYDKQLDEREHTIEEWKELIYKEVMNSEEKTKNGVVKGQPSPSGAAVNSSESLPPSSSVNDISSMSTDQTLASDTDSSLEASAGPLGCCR

[19] = cells; type: functional
[20] = Luminescence Cell-Based Dose Confirmation HTS to Identify Activators of 5'UTR Stem-Loop Driven Alpha-Synuclein mRNA Translation in H4 Neuroglioblastoma Cells. [Related pubchem assays: 1829 (Project Summary), 1814 (Primary HTS)]; type: functional
[21] = Luminescence Cell-Based Dose Response HTS to Identify Activators of Luciferase Translation or Activity in H4 […] Cells. [Related pubchem assays: 1829 (Project Summary), 1814 (Primary HTS)]; type: functional
[22] = system: H4; assay: Luminescence Cell-Based Dose Response HTS to Identify Activators of 5'UTR Stem-Loop Driven Prion Protein mRNA Translation in H4 Neuroglioblastoma Cells. [Related pubchem assays: 1829 (Project Summary), 1814 (Primary HTS)]; type: functional; conditions: Homo sapiens
[23] = system: Streptococcus; assay: Group A Streptococcus viability loss, dose response, counter-screen for streptokinase expression inhibitor project, luminescence, BacTiterGlo (AID 1915); type: functional, organism-based;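 further: potency for reduction of bacterial viability or growth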
[24] = system: Streptococcus sp. 'group A'; assay: growth inhibition of control SK(-) GAS strain, dose response, counter-screen for streptokinase expression inhibitor project, luminescence, kanamycin, BacTiterGlo, confirmation (AID 1900); type: functional, organism-based
[25] = system: HeLa; assay: HeLa cell cytotoxicity, dose response, cytotoxicity control for MITF activator project, CellTiter-Glo luminescence, cherry-pick samples (AID 540259); type: functional, cell-based; conditions: Homo sapiens
[26] = biological target: Cytochrome P450 2C9 (Homo sapiens, UniProt P11712)
Cytochrome P450 2C9, sequence (P11712 whole entry): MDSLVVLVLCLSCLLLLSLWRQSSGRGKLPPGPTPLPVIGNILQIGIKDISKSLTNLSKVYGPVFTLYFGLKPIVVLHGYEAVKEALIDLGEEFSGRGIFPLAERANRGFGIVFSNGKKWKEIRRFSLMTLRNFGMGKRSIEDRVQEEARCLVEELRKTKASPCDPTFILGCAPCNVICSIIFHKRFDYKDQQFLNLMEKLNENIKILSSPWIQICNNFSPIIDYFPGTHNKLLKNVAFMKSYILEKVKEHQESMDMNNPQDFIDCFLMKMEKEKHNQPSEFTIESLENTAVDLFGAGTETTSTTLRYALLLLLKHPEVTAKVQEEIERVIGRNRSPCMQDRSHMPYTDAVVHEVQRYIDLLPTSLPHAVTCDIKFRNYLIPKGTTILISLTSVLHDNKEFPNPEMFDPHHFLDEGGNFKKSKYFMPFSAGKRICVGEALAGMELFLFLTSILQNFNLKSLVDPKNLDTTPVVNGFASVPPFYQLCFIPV

[27] = biological target: T4, High affinity choline transporter 1 (Homo sapiens, UniProt Q9GZV3); assay: CHT inhibitors, dose response, cell-based, 5-point CRC, membrane potential dye (AID 504840); type: functional
T4 sequence (Q9GZV3 whole entry): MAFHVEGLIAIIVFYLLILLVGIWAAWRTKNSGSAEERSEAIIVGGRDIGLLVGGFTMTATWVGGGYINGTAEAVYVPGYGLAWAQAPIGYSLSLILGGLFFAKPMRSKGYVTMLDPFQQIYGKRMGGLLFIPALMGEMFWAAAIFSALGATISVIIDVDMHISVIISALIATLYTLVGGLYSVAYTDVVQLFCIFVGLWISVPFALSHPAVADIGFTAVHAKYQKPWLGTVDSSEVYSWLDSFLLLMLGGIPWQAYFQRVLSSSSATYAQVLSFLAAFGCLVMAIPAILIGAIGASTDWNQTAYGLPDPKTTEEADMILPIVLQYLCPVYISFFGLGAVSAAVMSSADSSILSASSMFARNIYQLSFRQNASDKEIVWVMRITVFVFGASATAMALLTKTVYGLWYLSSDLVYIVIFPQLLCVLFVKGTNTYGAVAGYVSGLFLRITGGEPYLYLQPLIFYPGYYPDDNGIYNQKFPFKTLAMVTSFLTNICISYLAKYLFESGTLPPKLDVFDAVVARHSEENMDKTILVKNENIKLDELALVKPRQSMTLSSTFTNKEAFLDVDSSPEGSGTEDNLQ

[28] = microbe, parasite or virus in culture; type: functional; conditions: Mycobacterium tuberculosis
[29] = THP-1 cell cytotoxicity, dose response, cytotoxicity control for non-replicating M. tuberculosis project (AID 489025); type: functional
[30] = Vero E6 cell cytotoxicity, dose response, cytotoxicity control for non-replicating M. tuberculosis project, secondary assay (AID 492998); type: functional, VeroE6; conditions: Vero C1008
[31] = biological target: Cytochrome P450 2C19 (Homo sapiens, UniProt P33261); assay: Cytochrome panel assay with activity outcomes. Panel member name: p450-cyp2c19 Compounds with AC50 equal or less than 10 uM are considered active; type: functional
Cytochrome P450 2C19, sequence (P33261 whole entry): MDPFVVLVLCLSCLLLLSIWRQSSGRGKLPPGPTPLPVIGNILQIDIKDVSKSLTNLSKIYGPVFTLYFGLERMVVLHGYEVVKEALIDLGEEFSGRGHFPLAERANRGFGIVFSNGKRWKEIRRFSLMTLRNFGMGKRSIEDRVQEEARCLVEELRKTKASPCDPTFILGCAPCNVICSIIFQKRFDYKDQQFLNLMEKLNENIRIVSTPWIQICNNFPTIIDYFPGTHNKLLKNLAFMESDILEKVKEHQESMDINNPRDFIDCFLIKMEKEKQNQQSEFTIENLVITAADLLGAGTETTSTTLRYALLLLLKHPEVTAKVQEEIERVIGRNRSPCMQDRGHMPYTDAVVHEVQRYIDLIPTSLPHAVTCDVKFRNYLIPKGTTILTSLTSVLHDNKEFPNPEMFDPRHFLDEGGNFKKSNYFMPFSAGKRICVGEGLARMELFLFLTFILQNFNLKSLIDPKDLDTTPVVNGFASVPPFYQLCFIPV

[32] = NIH-3T3 fibroblast cytotoxicity, dose response, cytotoxicity control, cell-based, fluorescence, Alamar Blue, secondary assay (AID 2327); type: functional;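 further: NIH-3T3 mouse fibroblasts cultured with fluconazole at 8 µg/mL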
[33] = C. albicans growth with fluconazole, confirmation, fluorescence, retest (AID 2467); type: functional, cell-based
[34] = inhibitors of SNCA 5'UTR-driven reporter translation, confirmation, H4 neuroglioma cells, luminescence (AID 1988); type: functional, cell-based
[35] = MC4R antagonists, dose response, counter-screen for LGR2 antagonist project, cell-based, plate reader, cherry pick (AID 743444); type: functional;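 further: transfected HEK 293 cells stimulated with alpha-MSH peptide; potency of inhibitors of the alpha-MSH evoked signal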
[36] = Luminescence Cell-Based Dose Response HTS to Identify Inhibitors of 5'UTR Stem-Loop Driven Prion Protein mRNA Translation in H4 Neuroglioblastoma Cells. [Related pubchem assays: 1827 (Project Summary), 1813 (Primary HTS)]; type: functional
[37] = inhibitors of firefly luciferase expression or activity, dose response, H4 neuroglioma cells, luminescence (AID 1990); type: functional, cell-based
[38] = LGR2 antagonists, dose response, cell-based, HEK293, CRE-luciferase reporter, cherry pick, set 2 (AID 743343); type: functional;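 further: transfected cells were stimulated with diluted bursicon conditioned medium after compound addition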

T1 sequence (P08684 whole entry): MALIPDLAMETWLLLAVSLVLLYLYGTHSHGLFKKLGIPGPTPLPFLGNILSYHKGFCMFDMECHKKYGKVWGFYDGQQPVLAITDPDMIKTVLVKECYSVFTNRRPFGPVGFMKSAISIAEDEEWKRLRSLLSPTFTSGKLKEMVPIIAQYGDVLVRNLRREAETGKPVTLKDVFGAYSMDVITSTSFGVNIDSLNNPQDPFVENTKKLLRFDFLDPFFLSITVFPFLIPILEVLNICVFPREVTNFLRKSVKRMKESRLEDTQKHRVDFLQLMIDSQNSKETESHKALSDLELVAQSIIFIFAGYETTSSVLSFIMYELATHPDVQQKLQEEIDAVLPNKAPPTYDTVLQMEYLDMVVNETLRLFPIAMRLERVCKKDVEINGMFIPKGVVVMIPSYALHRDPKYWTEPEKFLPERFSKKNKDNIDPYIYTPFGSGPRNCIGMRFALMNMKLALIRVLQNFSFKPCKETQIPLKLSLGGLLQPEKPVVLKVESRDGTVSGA

O=C(Oc1ccccc1)N1CCC2(CC1)CCN(c1ncccn1)CC2
AC50 [1]: inconclusive

Cc1ccc(-n2nc3cc(C)c(N)cc3n2)cc1
EC50 [2]: > 67.5 µM (inactive)
EC50 [3]: > 67.5 µM (inactive)
IC50 [4]: > 50 µM (not active)
IC50 [5]: 7.02 µM (active)

O=C(c1ccccc1)N1CCN(c2nc3ccc([N+](=O)[O-])cc3s2)CC1
AC50 [6]: 28.7 µM (active)

COc1cccc(-c2nnc3sc(C4CCCCC4)nn23)c1
AC50 [7]: 4.26 µM (active)
AC50 [8]: 17 µM (active)
AC50 [9]: 30 µM (active)
AC50 [10]: 3.09 µM (active)
AC50 [11]: 3.63 µM (active)
AC50 [12]: 5.07 µM (active)

CC(C)(C)NC(=O)COc1ccc(CNc2ccc3[nH]c(O)nc3c2)cc1
IC50 [13]: 64.6 µM (inactive)
IC50 [4]: > 50 µM (not active)
EC50 [14]: > 112 µM (not active)
EC50 [15]: 17.9 µM (active)

O=C1CCCCCC1C1(O)C(=O)Nc2ccc(Br)cc21 (stereo not drawn)
AC50 [16]: inconclusive
AC50 [17]: 17.8 µM (inconclusive)

COc1ccc(/N=C2\SC(C(=O)O)CC(=O)N2Cc2ccc(OC)c(OC)c2)cc1 (stereo not drawn)
AC50 [6]: 86.2 µM (active)

O=C1C(/C=N/c2ccccc2O)=C(O)c2ccccc21
EC50 [2]: > 67.5 µM (inactive)
EC50 [3]: > 67.5 µM (inactive)
IC50 [18]: 23.1 µM (not active)

CCc1ccc(/C=N/NC(=O)c2ccccn2)cc1
AC50 [8]: 3.11 µM (active)
IC50 [19]: 5.9 µM (active)

Cc1nn(-c2ccccc2)c2c1C(O)n1c(nc3ccccc31)S2 (stereo not drawn)
EC50 [20]: > 120 µM (not active)
EC50 [21]: > 120 µM (not active)
EC50 [22]: > 120 µM (not active)
IC50 [18]: > 93.1 µM (not active)

COc1ccc(/C=C2\N=C(C)OC2=O)cc1[N+](=O)[O-]
AC50 [8]: 237 µM (active)

CNC(=O)CNC(=O)Nc1ccc(C)cc1
AC50 [6]: 29.8 µM (active)

CN1CCN(c2cc3c(cc2F)c(=O)c(C(=O)O)cn3CCF)CC1
EC50 [23]: 7.64 µM (active)
AC50 [6]: 2.57 µM (active)
IC50 [19]: 3.08 µM (active)
EC50 [24]: 5.58 µM (active)

O=C(CNc1cccc2ccccc12)N/N=C/C=C/c1ccco1
IC50 [4]: > 50 µM (not active)

O=C(Nc1ccccn1)c1ccccc1
AC50 [25]: 83.2 µM (active)

COc1ccc(C(=O)Nc2ccc3c4c(cccc24)CC3)cc1
AC50 [25]: 73.4 µM (active)

COC(=O)c1ccccc1NC(=O)c1c(Br)cnn1C
AC50 [1]: inconclusive
AC50 [26]: inconclusive

O=C(Nc1cc(C(F)(F)F)ccc1-n1cncn1)c1ccc([N+](=O)[O-])o1
IC50 [27]: 11 µM (active)
CC50 [28]: 6.96 µM (active)
CC50 [29]: 37.3 µM (active)
CC50 [30]: 8.89 µM (active)
IC50 [19]: 19.8 µM (active)

CCCN1CCN(C(=O)CN2C(=O)CC(C)(C)S(=O)(=O)c3ccccc32)CC1
AC50 [31]: inconclusive
AC50 [16]: inconclusive
AC50 [17]: 12.6 µM (inconclusive)

CN1[C@@H]2CC[C@H]1CC(NC(=O)c1nn(C)c3ccccc13)C2 (stereo partly drawn)
AC50 [1]: inconclusive

COc1cc2c(C)nc3c(cnn3-c3ccccc3)c2cc1OC
AC50 [25]: 86.7 µM (active)

COc1cc(CC(=O)Nc2nccs2)cc(OC)c1OC
EC50 [32]: > 160 µM (inactive)
EC50 [33]: > 38 µM (not active)
IC50 [18]: > 93.1 µM (not active)

CCOC(=O)c1cn2nc(N3CCCC3)ccc2n1
EC50 [34]: 5.55 µM (active)
AC50 [8]: 3.17 µM (active)
AC50 [35]: 5.54 µM (active)
EC50 [36]: 2.56 µM (active)
EC50 [37]: 8.17 µM (inconclusive)
AC50 [38]: 5.94 µM (active)
